# Results: US6395757B1, “Method for treating hot flashes in humans” (priority 1998, dated 2002)
# Columns and labels:
# [1] = transdermal, tamoxifen-treated women; cited from earlier work
# [2] = Daily topical application of 0.5% glycopyrrolate roll-on solution in tamoxifen-treated breast cancer patients (Examples 2 and 3); format: in vivo, human
# From the text: A person treated with tamoxifen for breast cancer described 8 months of hot flashes and perspiration that awakened them from sleep.
# A person treated with tamoxifen for breast cancer described hot flashes and perspiration beginning on their scalp, which interfered with their sleep.
# [3] = solution applied to the face of the patient; cited from earlier work
# [4] = Daily topical application of 0.5% glycopyrrolate lotion in a patient with menopausal hot flashes (Example 1); format: in vivo, human
# Description: The patient is a person with a history of hot flashes and perspiration associated with menopause. They complained about profuse facial, scalp and anterior neck sweating that occurred randomly with the hot flashes. As a treatment, the patient was offered and consented to the application of 0.5% glycopyrrolate topical lotion, which they applied once daily to their forehead and face, sparing their mouth and eyes. The lotion consisted of 1.5 gm glycopyrrolate; 75 ml ethanol; 2.4 gm hydroxyethylcell; brought to a total volume of 300 ml with water and the pH adjusted to 2-4.5.
# [5] = cited from earlier work
# [6] = Example 2: person on tamoxifen, 0.5% roll-on solution daily to face
# [7] = Example 3: person on tamoxifen, 0.5% roll-on solution daily to scalp and around hair line
smiles,measurement,setting,value
Clc1cccc(Cl)c1N=C1NCCN1 [clonidine],frequency and severity of hot flashes,[1],only a moderate effect
C[N+]1(C)CCC(OC(=O)C(O)(c2ccccc2)C2CCCC2)C1 (centres unmarked) [glycopyrrolate],quality of sleep,[2]; [6],improvement in the quality of their sleep
same,symptoms (hot flashes and perspiration),[2]; [6],greatly relieved their symptoms
same,sleep,[2]; [7],improved sleep
same,symptoms (hot flashes and perspiration),[2]; [7],greatly relieved their symptoms
same,gustatory sweating,[3],prevented the gustatory sweating
same,symptoms during continued use,"[4]; daily topical roll-on lotion, subsequent 6 months",continued to alleviate their symptoms
same,perspiration associated with the hot flashes,"[4]; person, menopause, 0.5% lotion once daily to forehead and face",complete resolution
same,hot flashes associated with menopause (patient report),"[4]; person, 0.5% lotion once daily to forehead and face",alleviated
CC(=O)O[C@]1(C(C)=O)CC[C@H]2[C@@H]3C=C(C)C4=CC(=O)CC[C@]4(C)[C@H]3CC[C@@]21C [megestrol acetate],frequency of hot flashes,"[5]; low dose oral, men and women, short term study",reduce the frequency of hot flashes
same,side effect when taken long term,"[5]; low dose, long term",chronic adrenal insufficiency can be a side effect
